Laboratory results reported in patent publication US20210100781A1, “TUMOR SUPPRESSION” (Kyoto University, priority 2019, published 2021).

Columns and labels:
[1] = tested on: lytic genes; experiment: Suppression of lytic induction in KSHV+ PEL cells (RT-PCR and Western blotting); assay type: cell-based; details: BC-3 cells and BCBL-1 cells undergoing lytic induction, 48 hours
Text: Both of the BC-3 cells and the BCBL-1 cells are cell lines of KSHV^+ PEL cells. Regarding the BC-3 cells, it is known that TPA (12-O-tetradecanoylphorbol-13-acetate) and SB (sodium butyrate) cause cytokine stimulation, which results in the lytic induction. Further, regarding the BCBL-1 cells, it is known that VPA (valproic acid) causes cytokine stimulation, which results in the lytic induction.
Such cytokine stimulation was given to the BC-3 cells and the BCBL-1 cells, and the cells were cultured for 24 hours or 48 hours. Then, RNA of the same was collected, and was subjected to RT-PCR.
Effects of the compound A (the compound A produced in Production Example 1, also described as “Cp. A”) were confirmed by using the same BC-3 cells and BCBL-1 cells as those in Reference Example 1.
The compound A was added to the BC-3 cells and the BCBL-1 cells undergoing lytic induction and cultured for 48 hours; then, the cultured cells were analyzed by RT-PCR and Western blotting.

[2] = tested on: KSHV; experiment: Suppression of viral replication: KSHV copy number by real-time PCR; assay type: cell-based; details: BCBL-1 cells undergoing lytic induction, 96 hours, compound increased to 5 μM and to 10 μM
Experimental: Effects of the compound A on the KSHV copy number were analyzed by real-time PCR.
The compound A was added to the BCBL-1 cells undergoing lytic induction and cultured for 96 hours; then, DNA samples were collected and analyzed by real-time PCR.

[3] = tested on: BCBL-1 cells; experiment: Intraperitoneal administration to PEL xenograft mouse models; assay type: in vivo, mice (NOD/SCID mice); details: 300 mg/kg bw intraperitoneally three times a week, 45 days
Experimental: BCBL-1 cells were intraperitoneally inoculated into immunodeficient mice (NOD/SCID mice) so that PEL xenograft models were produced. PEL refers to “primary effusion lymphoma”, as described above. The mice were divided into a compound A administered group and a control group. […] To the control group, PBS was administered intraperitoneally three times a week instead of the compound A. Exemplary results thereof are shown in FIG. 5.

[4] = tested on: KSHV; experiment: Viruses in ascites and plasma of PEL xenograft mice; assay type: in vivo, mice (NOD/SCID mice); details: 300 mg/kg bw intraperitoneally three times a week, 45 days
Experimental: BCBL-1 cells were intraperitoneally inoculated into immunodeficient mice (NOD/SCID mice) so that PEL xenograft models were produced. PEL refers to “primary effusion lymphoma”, as described above.
The mice were divided into a compound A administered group and a control group. […] To the control group, PBS was administered intraperitoneally three times a week instead of the compound A. Exemplary results thereof are shown in FIG. 5.
Viruses in ascites and plasma of the above-described mice were detected.

[5] = tested on: E6 and E7 genes of HPV; details: known from WO2005/063293, WO2009/020198, Yamamoto et al. 2014; cited from earlier work

## Fc1ccc(N2CCCCC2)c(NC(=S)c2ccncc2)c1 [compound A, N-[5-fluoro-2-(1-piperidinyl)phenyl]-4-pyridinethioamide]
[1]
  expression of the lytic genes at protein level (Western blotting): suppressed
[1]; compound increased to 5 μM and to 10 μM
  expression amount of lytic genes (RT-PCR): decreased
[2]
  virus copy number (real-time PCR): decreased
[3]; vs control group (PBS)
  amount of ascites: significantly less
[3]; vs control group, data not shown
  enlarged spleen: particularly suppressed
[4]; ascites
  amount of viruses in ascites: significantly decrease
[4]; plasma
  amount of viruses in plasma: significantly decrease
[5]
  expression of the E6 and E7 genes of HPV: suppress
  p53 gene stabilization: stabilize
